System: 282377-053-R-J1-PDC complex spheroids, viability
Assay: Anticancer human tumor 282377-053-R-J1-PDC patient-derived colon adenocarcinoma cell line growth inhibition [GQUAD]
Conditions: for IC50: curve of first compound; for viability, T/C: stronger effect = lower value
Outline: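 Multi-cell-type spheroids of tumor cells with HUVEC and mesenchymal stem cells, treated with drug combinations. Concentrations descend in half-log steps from near clinical Cmax, or from 10 microM where Cmax is unknown; viability read-out.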

[1] = second compound 0.0316 µM, first compound 0.0316 µM
[2] = second compound 0.0316 µM, first compound 0.1 µM
[3] = second compound 0.0316 µM, first compound 0.316 µM
[4] = second compound 0.0316 µM, first compound 1 µM
[5] = second compound 0.0316 µM, first compound 3.16 µM
[6] = second compound 0.0316 µM, first compound 10 µM
[7] = second compound 0.1 µM, first compound 0.0316 µM
[8] = second compound 0.1 µM, first compound 0.1 µM
[9] = second compound 0.1 µM, first compound 0.316 µM
[10] = second compound 0.1 µM, first compound 1 µM
[11] = second compound 0.1 µM, first compound 3.16 µM
[12] = second compound 0.1 µM, first compound 10 µM
[13] = second compound 0.316 µM, first compound 0.0316 µM
[14] = second compound 0.316 µM, first compound 0.1 µM
[15] = second compound 0.316 µM, first compound 0.316 µM
[16] = second compound 0.316 µM, first compound 1 µM
[17] = second compound 0.316 µM, first compound 3.16 µM
[18] = second compound 0.316 µM, first compound 10 µM
[19] = second compound 1 µM, first compound 0.0316 µM
[20] = second compound 1 µM, first compound 0.1 µM
[21] = second compound 1 µM, first compound 0.316 µM
[22] = second compound 1 µM, first compound 1 µM
[23] = second compound 1 µM, first compound 3.16 µM
[24] = second compound 1 µM, first compound 10 µM
[25] = second compound 3.16 µM, first compound 0.0316 µM
[26] = second compound 3.16 µM, first compound 0.1 µM
[27] = second compound 3.16 µM, first compound 0.316 µM
[28] = second compound 3.16 µM, first compound 1 µM
[29] = second compound 3.16 µM, first compound 3.16 µM
[30] = second compound 3.16 µM, first compound 10 µM
[31] = second compound 10 µM, first compound 0.0316 µM
[32] = second compound 10 µM, first compound 0.1 µM
[33] = second compound 10 µM, first compound 0.316 µM
[34] = second compound 10 µM, first compound 1 µM
[35] = second compound 10 µM, first compound 3.16 µM
[36] = second compound 10 µM, first compound 10 µM
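Also: spheroids exposed to compounds for 7 days before readout.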
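For viability, T/C in this document: percent of vehicle DMSO control viability with 100% = untreated-like growth.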

CC1COCCN1c1cc(C2(S(C)(=N)=O)CC2)nc(-c2ccnc3[nH]ccc23)n1 (stereo unspecified) + Cc1cnc(CNC(=O)c2c(=O)c3ccc(N4CCCN(C)CC4)nc3n3c2sc2ccccc23)cn1
IC50 (second compound 0.0316 µM): > 10 µM
IC50 (second compound 0.1 µM): 4.51 µM
IC50 (second compound 0.316 µM): 5.63 µM
IC50 (second compound 1 µM): 3.78 µM
IC50 (second compound 3.16 µM): 3.52 µM
IC50 (second compound 10 µM): < 0.0316 µM
viability, T/C [1]: 94.2%
viability, T/C [2]: 78.7%
viability, T/C [3]: 96.2%
viability, T/C [4]: 89.1%
viability, T/C [5]: 61.1%
viability, T/C [6]: 50.6%
viability, T/C [7]: 99.5%
viability, T/C [8]: 115%
viability, T/C [9]: 94.4%
viability, T/C [10]: 76.2%
viability, T/C [11]: 59.1%
viability, T/C [12]: 35.4%
viability, T/C [13]: 83.2%
viability, T/C [14]: 92.2%
viability, T/C [15]: 97.1%
viability, T/C [16]: 81%
viability, T/C [17]: 64.3%
viability, T/C [18]: 36.3%
viability, T/C [19]: 68.4%
viability, T/C [20]: 79.2%
viability, T/C [21]: 70.9%
viability, T/C [22]: 61%
viability, T/C [23]: 55.6%
viability, T/C [24]: 30%
viability, T/C [25]: 49.1%
viability, T/C [26]: 56.1%
viability, T/C [27]: 68.5%
viability, T/C [28]: 50.1%
viability, T/C [29]: 52.2%
viability, T/C [30]: 34.6%
viability, T/C [31]: 42.1%
viability, T/C [32]: 52%
viability, T/C [33]: 54.5%
viability, T/C [34]: 43.9%
viability, T/C [35]: 43.1%
viability, T/C [36]: 29.1%

Cc1cccc(N(C)C(=O)C2C(O)CCN2c2nc(C)cc(C(F)(F)F)c2C#N)c1 (stereo unspecified) + Cc1cnc(CNC(=O)c2c(=O)c3ccc(N4CCCN(C)CC4)nc3n3c2sc2ccccc23)cn1
IC50 (second compound 0.0316 µM): > 10 µM
IC50 (second compound 0.1 µM): > 10 µM
IC50 (second compound 0.316 µM): > 10 µM
IC50 (second compound 1 µM): > 10 µM
IC50 (second compound 3.16 µM): > 10 µM
IC50 (second compound 10 µM): 1.25 µM
viability, T/C [1]: 114%
viability, T/C [2]: 105%
viability, T/C [3]: 108%
viability, T/C [4]: 80.3%
viability, T/C [5]: 95.1%
viability, T/C [6]: 93.1%
viability, T/C [7]: 96.1%
viability, T/C [8]: 99.3%
viability, T/C [9]: 95.5%
viability, T/C [10]: 88%
viability, T/C [11]: 88.8%
viability, T/C [12]: 93.6%
viability, T/C [13]: 95%
viability, T/C [14]: 85.6%
viability, T/C [15]: 98.8%
viability, T/C [16]: 77%
viability, T/C [17]: 93.4%
viability, T/C [18]: 79.7%
viability, T/C [19]: 66.3%
viability, T/C [20]: 60.6%
viability, T/C [21]: 64.1%
viability, T/C [22]: 60.3%
viability, T/C [23]: 65.9%
viability, T/C [24]: 67.1%
viability, T/C [25]: 54.6%
viability, T/C [26]: 51%
viability, T/C [27]: 56.2%
viability, T/C [28]: 58.8%
viability, T/C [29]: 56.6%
viability, T/C [30]: 58.5%
viability, T/C [31]: 50.6%
viability, T/C [32]: 53.6%
viability, T/C [33]: 50.6%
viability, T/C [34]: 52.2%
viability, T/C [35]: 46.4%
viability, T/C [36]: 35.5%

O=C(c1cc(Cc2n[nH]c(=O)c3ccccc23)ccc1F)N1CCN(C(=O)C2CC2)CC1 + Cc1cnc(CNC(=O)c2c(=O)c3ccc(N4CCCN(C)CC4)nc3n3c2sc2ccccc23)cn1
IC50 (second compound 0.0316 µM): > 10 µM
IC50 (second compound 0.1 µM): > 10 µM
IC50 (second compound 0.316 µM): > 10 µM
IC50 (second compound 1 µM): > 10 µM
IC50 (second compound 3.16 µM): 2.43 µM
IC50 (second compound 10 µM): 0.0701 µM
viability, T/C [1]: 103%
viability, T/C [2]: 100%
viability, T/C [3]: 140%
viability, T/C [4]: 92.9%
viability, T/C [5]: 90.6%
viability, T/C [6]: 89.2%
viability, T/C [7]: 106%
viability, T/C [8]: 121%
viability, T/C [9]: 93%
viability, T/C [10]: 84.9%
viability, T/C [11]: 110%
viability, T/C [12]: 92.3%
viability, T/C [13]: 84.2%
viability, T/C [14]: 91.9%
viability, T/C [15]: 74.6%
viability, T/C [16]: 89.8%
viability, T/C [17]: 95.6%
viability, T/C [18]: 73.3%
viability, T/C [19]: 61.2%
viability, T/C [20]: 55.8%
viability, T/C [21]: 54.7%
viability, T/C [22]: 61%
viability, T/C [23]: 60.8%
viability, T/C [24]: 54%
viability, T/C [25]: 60.8%
viability, T/C [26]: 51.1%
viability, T/C [27]: 59.2%
viability, T/C [28]: 52.3%
viability, T/C [29]: 46.2%
viability, T/C [30]: 48.6%
viability, T/C [31]: 52.9%
viability, T/C [32]: 47.4%
viability, T/C [33]: 47.7%
viability, T/C [34]: 48.9%
viability, T/C [35]: 40.1%
viability, T/C [36]: 46.6%

— PubChem BioAssay AID2060501 (Molecular Pharmacology Branch, DTP, NCI, 2025)
